Experimental data published in patent US12344610B2, “APOL1 inhibitors and methods of use” (Maze Therapeutics, Inc., priority 2022, dated 2025).
Read-outs that look alike come from different tables or passages of the source.

What was measured:
Assay type in all cases: cell-based
[1] = tested on: Trypanosoma brucei Lister 427 VSG221 with APOL1 G0 recombinant protein; experiment: APOL1 G0 trypanosome cell rescue assay (Example B5); settings: geometric mean of at least 2 assay runs, † = single assay run
Summary of the method: (§1)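 Luminescent ATP read-out (CellTiter-Glo) of trypanosome viability after 20 h at 37° C. Bloodstream T. brucei Lister 427 VSG221, 250/well in modified HMI-9, were exposed to recombinant mature APOL1 (aa 28-398) from a 2 μg/mL addition, plus compound in 11-point 2-fold series.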

[2] = tested on: Trypanosoma brucei Lister 427 VSG221 with APOL1 G1 recombinant protein; experiment: APOL1 G1 trypanosome cell rescue assay (Example B5); settings: geometric mean of at least 2 assay runs, † = single assay run
Summary of the method: as §1

[3] = tested on: Trypanosoma brucei Lister 427 VSG221 with APOL1 G2 recombinant protein; experiment: APOL1 G2 trypanosome cell rescue assay (Example B5); settings: geometric mean of at least 2 assay runs, † = single assay run
Summary of the method: as §1

[4] = tested on: HEK293 clonal cell line overexpressing APOL1 G1; experiment: APOL1 G1 HEK293 cell rescue assay (Example B3); settings: geometric mean of at least 2 runs, † = single run, ¥ = concentration at 50% rescue estimated (no sigmoidal curve)
Summary of the method: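 Rescue of cell death caused by APOL1 G1 overexpression was measured in a clonal HEK293 line. Compounds were tested in duplicate on one plate, and EC50s were geometric means across at least two runs on different days. Some values are estimated 50%-rescue concentrations where curve fitting failed.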

[5] = Trypanosoma brucei, 20 h, read-out: APOL1 G0 Trypanosome Rescue EC50, Trypanosoma brucei Lister 427 VSG221 with APOL1 G0 recombinant protein, 20 hours, CellTiter-Glo
[6] = Trypanosoma brucei, 20 h, read-out: APOL1 G1 Trypanosome Rescue EC50, Trypanosoma brucei Lister 427 VSG221 with APOL1 G1 recombinant protein, 20 hours, CellTiter-Glo
[7] = Trypanosoma brucei, 20 h, read-out: APOL1 G2 Trypanosome Rescue EC50, Trypanosoma brucei Lister 427 VSG221 with APOL1 G2 recombinant protein, 20 hours, CellTiter-Glo
[8] = Homo sapiens, HEK293, HEK293 clonal line overexpressing APOL1 G1

CC(c1ccc(OCCN2CCC3(CC2)C(=O)Nc2ccc(C#N)cc23)cc1)S(C)(=O)=O (single isomer, unassigned) [Compound 135, (R) or (S)-1′-{2-[4-(1-methanesulfonylethyl)phenoxy]ethyl}-2-oxo-1,2-dihydrospiro[indole-3,4′-piperidine]-5-carbonitrile]
EC50 ([1]; read-out: APOL1 G0 Trypanosome Rescue EC50, Trypanosoma brucei Lister 427 VSG221 with APOL1 G0 recombinant protein, 20 hours, CellTiter-Glo): 1080 nM | EC50 ([2]; read-out: APOL1 G1 Trypanosome Rescue EC50, Trypanosoma brucei Lister 427 VSG221 with APOL1 G1 recombinant protein, 20 hours, CellTiter-Glo): 1200 nM | EC50 ([3]; read-out: APOL1 G2 Trypanosome Rescue EC50, Trypanosoma brucei Lister 427 VSG221 with APOL1 G2 recombinant protein, 20 hours, CellTiter-Glo): 303 nM | EC50 ([4]; HEK293 clonal line overexpressing APOL1 G1): 1140 nM

CN=S(C)(=O)c1ccc(OCCN2CCC3(CC2)C(=O)Nc2ccc(C#N)cc23)cc1 (stereo not shown) [Compound 150, 1′-(2-{4-[methyl(methylimino)oxo-λ^6-sulfanyl]phenoxy}ethyl)-2-oxo-1,2-dihydrospiro[indole-3,4′-piperidine]-5-carbonitrile]
EC50 [1, 5]: 1440 nM | EC50 [2, 6]: 2290 nM | EC50 [3, 7]: 519 nM | EC50 [4, 8]: 1540 nM

CS(=O)(=O)c1ccc(OCCN2CCC3(CC2)C(=O)Nc2ccc(C#N)cc23)cc1Cl [Compound 156, 1′-[2-(3-chloro-4-methanesulfonylphenoxy)ethyl]-2-oxo-1,2-dihydrospiro[indole-3,4′-piperidine]-5-carbonitrile]
EC50 [1, 5]: 96.6 nM | EC50 [2, 6]: 154 nM | EC50 [3, 7]: 44.8 nM | EC50 [4, 8]: 153 nM

N#Cc1ccc2c(c1)C1(CCN(CCOc3ccc4c(c3)CCC(=O)N4CC(F)F)CC1)C(=O)N2 [Compound 105, 1′-(2-{[1-(2,2-difluoroethyl)-2-oxo-1,2,3,4-tetrahydroquinolin-6-yl]oxy}ethyl)-2-oxo-1,2-dihydrospiro[indole-3,4′-piperidine]-5-carbonitrile]
EC50 [1, 5]: 217 nM | EC50 [2, 6]: 274 nM | EC50 [3, 7]: 75.2 nM | EC50 [4, 8]: 175 nM

CN1CCc2cc(OCCN3CCC4(CC3)C(=O)Nc3ccc(C#N)cc34)ccc2S1(=O)=O [Compound 154, 1′-{2-[(2-methyl-1,1-dioxo-3,4-dihydro-2H-1λ^6,2-benzothiazin-6-yl)oxy]ethyl}-2-oxo-1,2-dihydrospiro[indole-3,4′-piperidine]-5-carbonitrile]
EC50 [1, 5]: 328 nM | EC50 [2, 6]: 569 nM | EC50 [3, 7]: 160 nM | EC50 [4, 8]: 252 nM

CC(C)N1C(=O)Cc2cc(OCCN3CCC4(CC3)C(=O)Nc3ccc(Cl)cc34)ccc21 [Compound 145, 5-chloro-1′-(2-{[2-oxo-1-(propan-2-yl)-2,3-dihydro-1H-indol-5-yl]oxy}ethyl)-1,2-dihydrospiro[indole-3,4′-piperidin]-2-one]
EC50 [1, 5]: 86.5 nM | EC50 [2, 6]: 118 nM | EC50 [3, 7]: 35.5 nM | EC50 [4, 8]: 98.5 nM

CS(=O)(=O)C1(c2ccc(OCCN3CCC4(CC3)C(=O)Nc3ccc(C#N)cc34)cc2)CCC1 [Compound 181, 1′-{2-[4-(1-methanesulfonylcyclobutyl)phenoxy]ethyl}-2-oxo-1,2-dihydrospiro[indole-3,4′-piperidine]-5-carbonitrile]
EC50 [1, 5]: 158 nM | EC50 [2, 6]: 232 nM | EC50 [3, 7]: 70.7 nM | EC50 [4, 8]: 194 nM

CS(=O)(=O)C1(c2ccc(OCCN3CCC4(CC3)C(=O)N(CCO)c3ccc(Cl)cc34)cc2)COC1 [Compound 160, 5-chloro-1-(2-hydroxyethyl)-1′-{2-[4-(3-methanesulfonyloxetan-3-yl)phenoxy]ethyl}-1,2-dihydrospiro[indole-3,4′-piperidin]-2-one]
EC50 [1, 5]: 109 nM | EC50 [2, 6]: 156 nM | EC50 [3, 7]: 42.3 nM | EC50 [4, 8]: 244 nM

CS(=O)(=O)C1(c2c(F)cc(OCCN3CCC4(CC3)C(=O)Nc3ccc(Cl)cc34)cc2F)COC1 [Compound 136, 5-chloro-1′-{2-[3,5-difluoro-4-(3-methanesulfonyloxetan-3-yl)phenoxy]ethyl}-1,2-dihydrospiro[indole-3,4′-piperidin]-2-one]
EC50 [1, 5]: 31.5 nM | EC50 [2, 6]: 37.1 nM | EC50 [3, 7]: 14.3 nM | EC50 [4, 8]: 49.4 nM

CC1(Oc2ncc(OCCN3CCC4(CC3)C(=O)Nc3ccc(Cl)cc34)cn2)COC1 [Compound 172, 5-chloro-1′-[2-({2-[(3-methyloxetan-3-yl)oxy]pyrimidin-5-yl}oxy)ethyl]-1,2-dihydrospiro[indole-3,4′-piperidin]-2-one]
EC50 [1, 5]: 246 nM | EC50 [2, 6]: 353 nM | EC50 [3, 7]: 108 nM | EC50 [4, 8]: 188 nM
